In patent US20100298244A1, “COMPOSITION FOR THE PREVENTION AND THE TREATMENT OF HELICOBACTER PYLORI INFECTION” (NATIONAL TAIWAN UNIVERSITY, priority 2009, published 2010):

Test system: 20 Helicobacter pylori strains
Assay: MIC by agar dilution method
Assay type: cell-based

MIC Range (20 H. pylori strains (10 resistant to metronidazole and clarithromycin, 10 sensitive)): >4000 µg/mL | MIC (Helicobacter pylori, 20 H. pylori strains, read-out: MIC For 50% of strains): > 4000 µg/mL | MIC90 (Helicobacter pylori, 20 H. pylori strains, read-out: MIC For 90% of strains (MIC90)): > 4000 µg/mL
SMILES: CC(=O)N[C@H]1[C@H]([C@H](O)[C@H](O)CO)OC(O)(C(=O)O)C[C@@H]1O (stereo partly shown) [Sialic acid, N-Acetylneuraminic acid]
inhibitory activity against Helicobacter pylori (alone): did not show any inhibitory activity
